# Data taken from PMC7180452, “Purine and Purine Isostere Derivatives of Ferrocene: An Evaluation of ADME, Antitumor and Electrochemical Properties” (Molecules, 2020).
# Entries after “also recorded” stand apart in the source; their conditions may differ. Read-outs that look alike come from different tables or passages of the source.
# Legend:
# [1] = system: normal skin fibroblasts (HFF); experiment: Cytotoxicity on non-tumor cells, HFF; format: cell-based, human
# Procedure: (§1) Antiproliferative activity of compounds 11a−11c, 12a−12c, 13a−13c, 14a−14c, 15a−15c, 16a, 23a−23c, 24a−24c, 25a−25c, 34a−34c and 35a−35c was evaluated in vitro on four human tumor cell lines (American Type Culture Collection, Manassas, VA, USA): metastatic colorectal adenocarcinoma (SW620), ductal pancreatic adenocarcinoma (CFPAC-1), hepatocellular carcinoma (HepG2) and cervical carcinoma (HeLa) as well as normal skin fibroblasts (HFF).
# [2] = system: cervical carcinoma (HeLa); experiment: In vitro antiproliferative activity, HeLa; format: cell-based, human; settings: HeLa cells
# Procedure: as §1
# [3] = pH 7.4
# Procedure: (§5) The distribution coefficient Chrom logD, a parameter used to assess the lipophilicity of compounds [36, 37], was determined for novel purine and purine isosteres with a ferrocene motif as shown in Table 1.
# (§6) The distribution coefficient, Chrom logD, was determined from compounds’ gradient retention times by employing a high-performance liquid chromatography method with fast acetonitrile gradient. Compounds were prepared for analysis in final concentration of 1.25 mM by dilution of 10 mM stock solutions in DMSO with acetonitrile. Aqueous mobile phase was 50 mM ammonium acetate adjusted with ammonia solution to pH 7.4 and the organic mobile phase was acetonitrile. A reversed phase HPLC column Luna C18, 50 × 3 mm i.d., 5 µm particle size (Phenomenex, Torrance, CA, USA) was used for analysis. Sample injection volume was 2 µL and the flow rate was 1 mL min^−1. All compounds were analysed in duplicates. Fast-gradient elution was as follows: from 0 to 100% of acetonitrile (0−3 min), 100% of acetonitrile (3.0−3.5 min), from 100 to 0% of acetonitrile (3.5−3.7 min), and re-equilibration with 100% of aqueous mobile phase (3.7−5.0 min). All measurements were performed on an HPLC-DAD instrument Agilent 1100 Series (Agilent Technologies, Santa Clara, CA, USA) coupled with a mass spectrometer Micromass Quattro API (Waters, MA, USA). MassLynx software, version 4.1 (Waters, Manchester, UK) was used for data acquisition and processing. Before compound analysis, a calibration step was performed. A set of standard compounds with literature CHI values [36] were plotted against gradient retention times to obtain a calibration equation, which was used to determine CHI value from the compounds’ retention times.
# [4] = system: ductal pancreatic adenocarcinoma (CFPAC-1); experiment: In vitro antiproliferative activity, CFPAC-1; format: cell-based, human; settings: CFPAC-1 cells
# Procedure: as §1
# [5] = system: hepatocellular carcinoma (HepG2); experiment: In vitro antiproliferative activity, HepG2; format: cell-based, human; settings: HepG2 cells
# Procedure: as §1
# [6] = system: metastatic colorectal adenocarcinoma (SW620); experiment: In vitro antiproliferative activity, SW620; format: cell-based, human; settings: SW620 cells
# Procedure: as §1
# MDCKII-hMDR1 cells = experiment: Permeability and P-gp substrate assessment in MDCKII-hMDR1 cell monolayer; format: in vitro ADME, canine; settings: for Permeability classification: MDCKII-hMDR1, in words; for Efflux Ratio (BA/AB) / Papp (AB) / Papp (BA): without P-gp inhibitor; for Papp (AB) / Papp (BA): 10 µM, 60 min
# Procedure: The Madin-Darby canine kidney cells with overexpressed human multidrug-resistant gene (MDCKII-hMDR1) have been frequently used to study bidirectional transport of compounds and assess P-gp substrate potential. Apparent permeability (Papp) values were determined from the amount permeated through the MDCKII-hMDR1 cell monolayer in both the apical-basolateral (AB) and basolateral-apical (BA) direction.
# MDCKII-hMDR1 cell monolayer was used for determination of permeability and P-gp substrate assessment. MDCKII-hMDR1 cells (Solvo Biotechnology, Szeged, Hungary) were grown in the controlled atmosphere (37 °C, 95% humidity, 5% CO2) in MDCK cell culture medium containing Dulbecco’s Modified Eagle Medium (DMEM) + 10% Fetal bovine serum (FBS, inactivated) + 1% glutamax-100 + 1% antibiotic/antimycotic + 1% of Non-essential amino acids Minimum Essential Medium (MEM NEAA). Cultures were split every 3–4 days using 0.05% Trypsin-EDTA. Cells were seeded 4 days prior to the experiment in concentration of 0.3 × 10^6 cells mL^−1 and cultured in CO2 incubator. On the experiment day, cell monolayers were washed with Dulbecco’s phosphate buffer saline (D-PBS) and equilibrated for 45 min in CO2 incubator in D-PBS containing 1% DMSO (1% v/v) with or without Elacridar (2 µM). Compounds, in final concentration of 10 µM, were prepared in transport medium containing Lucifer yellow (100 µM), with DMSO contentment of 1% (v/v) and in the presence and without Elacridar. Lucifer yellow calibration curve was prepared by serial dilution (12 points, with 100 µM as the highest point). Monolayer integrity was examined by fluorescent measurement on a Microplate reader Infinite F500 (Tecan) by using an excitation of 485 nm and emission of 530 nm. Experiment was started by applying the solutions containing test compounds to apical and basolateral side of the cell monolayer. Starting compound concentration (C0) was sampled at the start of the experiment and apical and basolateral compartments were sampled after incubation at 37 °C with gentle shaking for 60 min. Compound were tested in duplicate. Amprenavir was used as a control with low permeability and as a P-gp substrate without inhibitor presence, turning into a highly permeable compound with the inhibitor present.
# Samples were analyzed on an ABSciex API 4000 Triple Quadrupole Mass Spectrometer (Sciex, Division of MDS Inc., Toronto, ON, Canada) coupled to a UHPLC Nexera X2 (Shimadzu, Kyoto, Japan). Samples (1 µL) were injected onto a reversed phase HPLC column Luna Omega Polar C18, 30 × 2.1 mm i.d., 1.6 µm particle size (Phenomenex) which was kept at 50 °C. Aqueous solution was 0.1% formic acid in deionized water and the organic mobile phase was […]. Flow rate was kept at 0.7 mL min^−1 for all measurements. Fast-gradient elution was as follows: 2% of organic mobile phase through 0.15 min, from 2 to 95% of organic mobile phase (0.15−0.7 min), 95% of organic mobile phase (0.7−1.1 min), from 95 to 2% of organic mobile phase (1.1−1.11 min), and re-equilibration with 98% of aqueous mobile phase (1.11−1.5 min). Positive ion mode with turbo spray, an ion source temperature of 550 °C and a dwell time of 75 ms were utilized for mass spectrometric detection. Quantitation was performed using multiple reaction monitoring (MRM) at the specific transition corresponding to the compound of interest. Warfarin was used as an internal standard. The ratios between compound and internal standard peak areas were used instead of real compound concentration. Apparent permeability coefficient, Papp (nm s^−1) values were calculated by using the following Equation (1):Papp [nm s^−1] = (dQ/dT) × (1/C0) × (1/A)(1) where: dQ/dT = permeability rate; C0 = initial concentration in donor compartment; A = surface area of the cell monolayer (0.7 cm^2). […]
# [7] = Turbidimetric kinetic solubility assay; settings: for Kinetic Solubility: PBS, 1% DMSO, 37 °C, 2 h, estimated range
# Procedure: The turbidimetric solubility assay, which allows a rapid determination of the kinetic solubility of newly synthesized compounds using small amounts of their DMSO solutions, was used to assess the kinetic solubility [38].
# The compounds’ DMSO stock solutions in concentration of 10 mM were serially diluted by factor 3.3×, 3×, 3.3× and 3× in DMSO. Prepared solutions were spiked into phosphate-buffered saline (PBS, 100 mM) to obtain final compounds’ concentrations of 100, 30, 10, 3 and 1 µM (3 µL of prepared dilutions were spiked to 297 µL of PBS, with final DMSO content of 1%, v/v). All compounds were tested in two replicas per concentration. Prepared solutions were incubated at 37 °C for 2 h with gentle shaking. Blank solutions were also prepared by spiking DMSO in PBS buffer (1% of DMSO, v/v). […] Compound/control samples are compared to the blank solution. […] Results were expressed as an estimated solubility range (lower and upper bound).
# [8] = Chrom logD determination (fast-gradient HPLC); settings: pH 7.4
# Procedure: as §5, §6
# [9] = Metabolic stability in human liver microsomes; format: in vitro ADME; settings: for t1/2: 1 µM; for In Vivo CLh / In Vivo CLh (% LBF): human; for In Vivo CLh: predicted in vivo hepatic clearance; for In Vivo CLh (% LBF): predicted, % of liver blood flow
# Procedure: (§2) Metabolic stability of compounds was assessed in human and mouse liver microsomes (Corning, Tewksbury, MA, USA). Compounds, in final concentration of 1 µM, were incubated in phosphate buffer (50 mM, pH 7.4) for 60 min at 37 °C together with liver microsomes and NADPH generating system (nicotinamide adenine dinucleotide phosphate (NADP, 0.5 mM), glucose-6-phosphate (G6P, 5 mM), glucose-6-phosphate dehydrogenase (1.5 U mL^−1) and magnesium chloride (0.5 mM)). Also, compounds were incubated without the presence of NADPH cofactor, as a buffer stability control. Metabolic activity of liver microsomes was verified by including testosterone and propranolol as positive controls, as well as caffeine as a negative control. Sampling was performed at six time points (0, 10, 20, 30, 45 and 60 min), followed by reaction termination by addition of acetonitrile/methanol mixture (2:1, v/v) containing dicofenac as internal standard. Samples were analyzed as previously described for samples from permeability assay. The in vitro half-life (t1/2) was calculated from the slope of the linear regression by plotting ln % remaining of parent compound against incubation time. In vitro intrinsic clearance, CLint was calculated from half-life using following Equation (3):(3) CLint [µL min^−1 mg^−1]=ln2/t1/2×mL per incubation/mg protein per incubation where 52.5 mg protein/g liver is used as a constant.
# (§3) Predicted in vivo hepatic clearance, in vivo CLh was calculated as follows:(4) in vivo CLh [mL min^−1 kg^−1]=CLint×(mg protein/g liver)×Q×(LW/BW) /Q+(CLint×(mg protein/g liver)×(LW/BW)) where: LW/BW = liver weight/body weight [g kg^−1]; 25.7 (human), 87.5 (mouse); Q = LBF = liver blood flow [mL min^−1 kg^−1]; 21/1.26 (human), 131/7.86 (mouse).
# (§4) Predicted in vivo hepatic clearance can be expressed as %LBF and calculated as follows:(5) in vivo CLh [%LBF]=in vivo CLh/LBF×100
# [10] = Metabolic stability in mouse liver microsomes; format: in vitro ADME; settings: for t1/2: mouse liver microsomes, 1 µM; for In Vivo CLh / In Vivo CLh (% LBF): mouse; for In Vivo CLh: predicted in vivo hepatic clearance; for In Vivo CLh (% LBF): predicted, % of liver blood flow
# Procedure: as §2, §3, §4
SMILES,IC50 [2] [µM],Chrom logD [3],IC50 [4] [µM],IC50 [5] [µM],IC50 [6] [µM],Permeability classification (MDCKII-hMDR1 cells),Efflux Ratio (BA/AB) (MDCKII-hMDR1 cells),Papp (AB) (MDCKII-hMDR1 cells) [×10⁻⁶ cm/s],Papp (BA) (MDCKII-hMDR1 cells) [×10⁻⁶ cm/s],Kinetic Solubility [7] [µM],"Solubility classification ([7]; kinetic solubility, in words)",Chrom logD [8],t1/2 ([9]; human liver microsomes) [min],"Metabolic stability classification ([9]; human liver microsomes, in words)",In Vivo CLh [9] [mL/min/kg],In Vivo CLh (% LBF) [9] [% LBF],t1/2 [10] [min],In Vivo CLh [10] [mL/min/kg],In Vivo CLh (% LBF) [10] [% LBF],IC50 [1] [µM]
"Clc1ncnc2ncn(Cc3cn(C[c-]4cccc4)nn3)c12.[Fe+2].c1cc[cH-]c1 [Compound 15a, 6-Chloro-7-[1-(1-ferrocenymethyl-1,2,3-triazol-4-yl)methyl]-7H-purine]",28.6 ± 8.28,,34.4 ± 0.43,36 ± 1.81,27.2 ± 5.3,moderate AB permeability; also recorded: good permeability,7.0,4.8,33.5,>100,high solubility,3.82,51.9,moderate stability,15.0,58,8.8,24.8,97,13.8 ± 4.17
"Clc1ncnc2c1ccn2Cc1cn(C[c-]2cccc2)nn1.[Fe+2].c1cc[cH-]c1 [Compound 11a, 4-Chloro-7-[1-(1-ferrocenymethyl-1,2,3-triazol-4-yl)methyl]-7H-pyrrolo[2,3-d]pyrimidine]",38.2 ± 2.3,,32.9 ± 2.46,42 ± 5.93,31.6 ± 0.84,moderate to high AB permeability,2.2,8.4,18,<1,,5.62,7.8,,,90,4.4,,98,8.57 ± 1.95
"CC([c-]1cccc1)n1cc(Cn2ccc3c(Cl)ncnc32)nn1.[Fe+2].c1cc[cH-]c1 (centres unmarked) [Compound 11b, 4-Chloro-7-[1-(1-ferrocenyl-1-methylmethyl-1,2,3-triazol-4-yl)methyl]-7H-pyrrolo[2,3-d] pyrimidine]",31.4 ± 1.04,,31.3 ± 4.51,34.5 ± 1.36,32 ± 0.34,high permeability,1.5,11.8,17.4,3 to 10,,5.94,2.3,,24.9,97,,25.7,100,8.88 ± 3.46

# Further lines, with some results ahead:
IC50 [2] [µM],Chrom logD [3],IC50 [4] [µM],IC50 [5] [µM],IC50 [6] [µM],Permeability classification (MDCKII-hMDR1 cells),Efflux Ratio (BA/AB) (MDCKII-hMDR1 cells),Papp (AB) (MDCKII-hMDR1 cells) [×10⁻⁶ cm/s],Papp (BA) (MDCKII-hMDR1 cells) [×10⁻⁶ cm/s],Kinetic Solubility [7] [µM],"Solubility classification ([7]; kinetic solubility, in words)",Chrom logD [8],t1/2 ([9]; human liver microsomes) [min],"Metabolic stability classification ([9]; human liver microsomes, in words)",In Vivo CLh [9] [mL/min/kg],In Vivo CLh (% LBF) [9] [% LBF],t1/2 [10] [min],In Vivo CLh [10] [mL/min/kg],In Vivo CLh (% LBF) [10] [% LBF],SMILES,IC50 [1] [µM]
88.1 ± 1.18,>6.57,84.5 ± 15.8,90.9 ± 11.5,> 100,,,,,,,,,,,,,,,"[Fe+2].c1cc[cH-]c1.c1ccc2c(c1)ccn2Cc1cn(-[c-]2cccc2)nn1 [Compound 24c, 1-[1-(1-Ferrocenyl-1,2,3-triazol-4-yl)methyl]-1H-indole]",> 100
68.7 ± 2.91,>6.57,78 ± 6.61,53.6 ± 5.05,62 ± 8.79,,,,,,,,,,,,,,,"[Fe+2].c1cc[cH-]c1.c1ccc2c(c1)ccn2Cc1cn(C[c-]2cccc2)nn1 [Compound 24a, 1-[1-(1-Ferrocenylmethyl-1,2,3-triazol-4-yl)methyl]-1H-indole]",16.7 ± 8.61
> 100,>6.57,> 100,> 100,> 100,,,,,,,,,,,,,,,"CC([c-]1cccc1)n1cc(Cn2ccc3cc(I)ccc32)nn1.[Fe+2].c1cc[cH-]c1 (centres unmarked) [Compound 25b, 5-Iodo-1-[1-(1-ferrocenyl-1-methylmethyl-1,2,3-triazol-4-yl)methyl]-1H-indole]",> 100
78.5 ± 9.36,>6.57,> 100,> 100,> 100,,,,,,,,,,,,,,,"Ic1ccc2c(ccn2Cc2cn(C[c-]3cccc3)nn2)c1.[Fe+2].c1cc[cH-]c1 [Compound 25a, 5-Iodo-1-[1-(1-ferrocenylmethyl-1,2,3-triazol-4-yl)methyl]-1H-indole]",> 100
> 100,4.56,64.6 ± 12.2,59.9 ± 10.9,97 ± 13.6,,,,,,,,,,,,,,,"[Fe+2].c1cc[cH-]c1.c1ccc2c(c1)ncn2Cc1cn(C[c-]2cccc2)nn1 [Compound 23a, 1-[1-(1-Ferrocenylmethyl-1,2,3-triazol-4-yl)methyl]-1H-benzimidazole]",23.8 ± 3.32
79.4 ± 1.82,>6.57,> 100,71.8 ± 3.44,> 100,,,,,,,,,,,,,,,"Ic1ccc2c(ccn2Cc2cn(-[c-]3cccc3)nn2)c1.[Fe+2].c1cc[cH-]c1 [Compound 25c, 5-Iodo-1-[1-(1-ferrocenyl-1,2,3-triazol-4-yl)methyl]-1H-indole]",4.75 ± 1.7
89.6 ± 13.7,4.84,68 ± 13.7,83.6 ± 8.61,> 100,,,,,,,,,,,,,,,"CC([c-]1cccc1)n1cc(Cn2cnc3ccccc32)nn1.[Fe+2].c1cc[cH-]c1 (centres unmarked) [Compound 23b, 1-[1-(1-Ferrocenyl-1-methylmethyl-1,2,3-triazol-4-yl)methyl]-1H-benzimidazole]",31.8 ± 9.81
